According to ChEMBL document CHEMBL5727468, “Piperidine compounds as PCSK9 inhibitors” (2019):

These compounds were tested against Proprotein convertase subtilisin/kexin type 9 (Homo sapiens, UniProt Q8NBP7) (assay: In Vitro Screening Experiment: 1. […] Data Analysis:Date was analyzed with Prismsoftware (nonlinear regression (Sigmoidal dose-response-variable slope)Inhibition ratio %=100*(Sample reading−LC reading)/(HC reading−LC reading).).
Proprotein convertase subtilisin/kexin type 9, sequence (Q8NBP7 31-152 limits assumed): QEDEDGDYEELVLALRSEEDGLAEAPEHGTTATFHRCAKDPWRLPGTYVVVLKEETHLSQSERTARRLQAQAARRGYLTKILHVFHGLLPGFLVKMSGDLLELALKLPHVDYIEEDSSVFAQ
Proprotein convertase subtilisin/kexin type 9, sequence (Q8NBP7 153-692 limits assumed): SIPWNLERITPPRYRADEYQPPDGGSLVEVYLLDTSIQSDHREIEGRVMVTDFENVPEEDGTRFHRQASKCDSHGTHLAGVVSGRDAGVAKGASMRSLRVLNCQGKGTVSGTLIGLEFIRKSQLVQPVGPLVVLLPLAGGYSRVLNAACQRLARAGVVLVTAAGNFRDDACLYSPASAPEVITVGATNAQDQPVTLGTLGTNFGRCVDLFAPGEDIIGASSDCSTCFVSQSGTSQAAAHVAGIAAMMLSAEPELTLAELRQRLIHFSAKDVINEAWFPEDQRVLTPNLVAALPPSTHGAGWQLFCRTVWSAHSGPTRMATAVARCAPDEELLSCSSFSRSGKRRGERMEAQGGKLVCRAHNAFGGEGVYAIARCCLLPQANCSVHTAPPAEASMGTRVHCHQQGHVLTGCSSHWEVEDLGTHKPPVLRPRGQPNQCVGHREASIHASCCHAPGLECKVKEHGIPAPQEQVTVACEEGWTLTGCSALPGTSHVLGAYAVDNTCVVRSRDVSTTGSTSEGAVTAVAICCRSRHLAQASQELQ

IC50, < 10 µM:
CC1(C)ON=C(c2ccc(C(=O)N(c3ncccc3C3CC3)[C@@H]3CCCNC3)cc2)C1=O
COC1C(c2ccc(C(=O)N(c3ncccc3Cl)[C@@H]3CCCNC3)cc2)=NOC1(C)C (some centres not stated)
Cc1cccnc1N(C(=O)c1ccc(C2=NOC(C)(C)C2(C)O)cc1)[C@@H]1CCCNC1 (some centres not stated)
Cc1cccnc1N(C(=O)c1ccc(C2=NOC(C)(C)C2=O)cn1)[C@@H]1CCCNC1
CCc1cccnc1N(C(=O)c1ccc(C2=NOC(C)(C)C2=O)cc1)[C@@H]1CCCNC1
COCCOC1C(c2ccc(C(=O)N(c3ncccc3C)[C@@H]3CCCNC3)cc2)=NOC1(C)C (some centres not stated)
CC1(C)ON=C(c2ccc(C(=O)N(c3nccc4ccccc34)[C@@H]3CCCNC3)cc2)C1=O
